The values below come from patent US8772293B2, “Chemical compounds” (Pfizer Limited, priority 2010, dated 2014).

Structures can show the parent of a compound that is named as a salt.

The target in the assay is T1, Nav1.7 (or SCN9A) channel (Homo sapiens, UniProt Q15858).
T1 construct: expressed in transfected cells
T1 sequence (Q15858 whole entry): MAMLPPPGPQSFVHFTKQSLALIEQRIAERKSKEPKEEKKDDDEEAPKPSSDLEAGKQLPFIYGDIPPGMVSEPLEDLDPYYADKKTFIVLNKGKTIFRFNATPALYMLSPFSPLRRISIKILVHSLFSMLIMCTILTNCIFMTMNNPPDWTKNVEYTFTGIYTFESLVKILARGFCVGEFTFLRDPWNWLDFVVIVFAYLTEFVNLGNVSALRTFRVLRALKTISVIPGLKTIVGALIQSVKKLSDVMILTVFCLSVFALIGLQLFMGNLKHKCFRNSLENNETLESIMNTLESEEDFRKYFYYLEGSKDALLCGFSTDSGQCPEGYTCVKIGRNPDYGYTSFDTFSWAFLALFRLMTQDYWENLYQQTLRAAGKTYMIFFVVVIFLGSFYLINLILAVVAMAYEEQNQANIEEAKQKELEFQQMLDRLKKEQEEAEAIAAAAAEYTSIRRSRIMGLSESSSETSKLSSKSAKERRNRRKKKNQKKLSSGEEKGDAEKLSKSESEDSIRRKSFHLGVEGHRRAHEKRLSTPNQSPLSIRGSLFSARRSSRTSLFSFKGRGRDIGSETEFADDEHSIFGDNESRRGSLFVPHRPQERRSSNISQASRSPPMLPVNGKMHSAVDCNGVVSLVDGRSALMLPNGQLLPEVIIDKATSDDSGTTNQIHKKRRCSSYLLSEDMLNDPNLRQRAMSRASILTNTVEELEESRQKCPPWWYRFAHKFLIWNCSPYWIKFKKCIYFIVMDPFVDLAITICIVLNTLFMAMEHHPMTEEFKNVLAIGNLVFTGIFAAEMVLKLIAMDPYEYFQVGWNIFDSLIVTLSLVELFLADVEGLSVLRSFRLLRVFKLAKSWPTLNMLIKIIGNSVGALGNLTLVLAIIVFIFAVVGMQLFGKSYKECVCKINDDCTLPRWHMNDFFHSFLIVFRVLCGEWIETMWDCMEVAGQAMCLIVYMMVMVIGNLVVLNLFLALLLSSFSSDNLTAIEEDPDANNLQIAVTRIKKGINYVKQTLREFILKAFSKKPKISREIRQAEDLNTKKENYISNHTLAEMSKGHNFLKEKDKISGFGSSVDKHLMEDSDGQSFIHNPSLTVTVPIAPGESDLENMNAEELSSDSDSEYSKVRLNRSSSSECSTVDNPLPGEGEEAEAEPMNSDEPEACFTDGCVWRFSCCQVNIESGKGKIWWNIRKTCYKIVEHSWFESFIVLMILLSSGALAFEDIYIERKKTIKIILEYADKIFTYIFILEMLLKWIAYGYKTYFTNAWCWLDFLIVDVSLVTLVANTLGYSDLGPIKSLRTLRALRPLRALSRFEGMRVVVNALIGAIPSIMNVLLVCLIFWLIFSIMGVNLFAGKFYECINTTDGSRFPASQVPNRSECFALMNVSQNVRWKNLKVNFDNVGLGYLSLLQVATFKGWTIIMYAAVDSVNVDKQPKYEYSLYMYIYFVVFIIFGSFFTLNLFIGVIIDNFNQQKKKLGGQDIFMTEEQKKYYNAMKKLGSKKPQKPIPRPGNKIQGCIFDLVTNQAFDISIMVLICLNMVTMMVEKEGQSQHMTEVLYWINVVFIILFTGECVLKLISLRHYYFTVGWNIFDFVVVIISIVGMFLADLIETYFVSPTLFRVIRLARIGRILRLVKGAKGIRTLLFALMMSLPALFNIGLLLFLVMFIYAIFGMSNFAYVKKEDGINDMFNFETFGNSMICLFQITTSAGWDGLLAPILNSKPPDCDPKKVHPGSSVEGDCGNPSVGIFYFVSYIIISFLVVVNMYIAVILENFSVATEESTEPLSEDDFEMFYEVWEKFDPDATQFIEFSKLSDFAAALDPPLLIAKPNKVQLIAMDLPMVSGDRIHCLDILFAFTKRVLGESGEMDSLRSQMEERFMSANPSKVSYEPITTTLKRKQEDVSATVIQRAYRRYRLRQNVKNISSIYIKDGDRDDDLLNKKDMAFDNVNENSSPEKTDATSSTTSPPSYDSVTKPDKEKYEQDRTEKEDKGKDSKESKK
As to the kind of experiment: Nav1.7 (hSCN9A) PatchXpress electrophysiology in HEK cells. It counts as cell-based. The conditions noted are these: PatchXpress platform; HEK cells stably expressing hSCN9A; held at V1/2 of inactivation; calculated from single point % inhibition; read-out: Nav1.7 EIC50 (estimated IC-50). As to the method:
The ability of the compounds of formula (I) to block the Nav1.7 (or SCN9A) channel were measured using the assay described below.
Human Embryonic Kidney (HEK) cells were transfected with an hSCN9A construct using lipofectamine reagent (Invitrogen), using standard techniques. Cells stably expressing the hSCN9A constructs were identified by their resistance to G-418 (400 μg/ml). Clones were screened for expression using the whole-cell voltage-clamp technique.
HEK cells stably transfected with hSCN9A were maintained in DMEM medium supplemented with 10% heat-inactivated fetal bovine serum and 400 µg/ml G-418 in an incubator at 37° C. with a humidified atmosphere of 10% CO2. For HTS, cells were harvested from flasks by trypsinization and replated in an appropriate multi-well plate (typically 96 or 384 wells/plate) such that confluence would be achieved within 24 hours of plating. For electrophysiological studies, cells were removed from the culture flask by brief trypsinization and re-plated at low density onto glass cover slips. Cells were typically used for electrophysiological experiments within 24 to 72 hours after plating.
Cover slips containing HEK cells expressing hSCN9A were placed in a bath on the stage of an inverted microscope and perfused (approximately 1 ml/minutes) with extracellular solution of the following composition: 138 mM NaCl, 2 mM CaCl2, 5.4 mM KCl, 1 mM MgCl2, 10 mM glucose, and 10 mM HEPES, pH 7.4, with NaOH. […] The osmolarity of the extracellular and intracellular solutions was 300 mOsm/kg and 295 mOsm/kg, respectively. All recordings were made at room temperature (22-24° C.) using AXOPATCH 200B amplifiers and PCLAMP software (Axon Instruments, Burlingame, Calif.).
hSCN9A currents in HEK cells were measured using the whole-cell configuration of the patch-clamp technique (Hamill et al., 1981). Uncompensated series resistance was typically 2 to 5 mega ohms and >85% series resistance compensation was routinely achieved. As a result, voltage errors were negligible and no correction was applied. Current records were acquired at 20 to 50 KHz and filtered at 5 to 10 KHz.
HEK cells stably transfected with hSCN9A were viewed under Hoffman contrast optics and placed in front of an array of flow pipes emitting either control or compound-containing extracellular solutions. All compounds were dissolved in dimethyl sulfoxide to make 10 mM stock solutions, which were then diluted into extracellular solution to attain the final concentrations desired. […] The voltage-dependence of inactivation was determined by applying a series of depolarizing prepulses (8 sec long in 10 mV increments) from a negative holding potential. The voltage was then immediately stepped to 0 mV to assess the magnitude of the sodium current. Currents elicited at 0 mV were plotted as a function of prepulse potential to allow estimation of the voltage at which 50% of the channels were inactivated (midpoint of inactivation or V1/2). Compounds were tested for their ability to inhibit hSCN9A sodium channels by activating the channel with a 20 msec voltage step to 0 mV following an 8 second conditioning prepulse to the empirically determined V1/2. Compound effect (% inhibition) was determined by difference in current amplitude before and after application of test compounds. For ease of comparison, “estimated IC-50” (EIC50) values were calculated from single point electrophysiology data by the following equation, (tested concentration, uM)×(100-% inhibition/% inhibition). Inhibition values <20% and >80% were excluded from the calculation.
Electrophysiological assays were conducted with PatchXpress 7000 hardware and associated software (Molecular Devices Corp). All assay buffers and solutions were identical to those used in conventional whole-cell voltage clamp experiments described above. hSCN9A cells were grown as above to 50%-80% confluency and harvested by trypsinization. […]
For `N#Cc1cc(S(=O)(=O)Nc2ncns2)ccc1Oc1ccc(-c2cccc(C(F)(F)F)c2)cc1-c1ccnnc1` [Example 1, 3-Cyano-4-{[3-pyridazin-4-yl-3′-(trifluoromethyl)biphenyl-4-yl]oxy}-N-1,2,4-thiadiazol-5-ylbenzenesulfonamide], the IC50 is 1.8 nM.
Turning to `O=S(=O)(Nc1ncccn1)c1cc(Cl)c(Oc2ccc(-c3ccc(C(F)(F)F)cc3)cc2-c2ccnnc2)cc1F` [Example 2, 5-Chloro-2-fluoro-4-{[3-pyridazin-4-yl-4′-(trifluoromethyl)biphenyl-4-yl]oxy}-N-pyrimidin-2-ylbenzenesulfonamide], the IC50 was 8.1 nM.
To `O=S(=O)(Nc1cccnn1)c1ccc(Oc2ccc(-c3ccc(C(F)(F)F)cc3)cc2-c2ccnnc2)c(Cl)c1` [Example 3, 3-Chloro-N-pyridazin-3-yl-4-{[3-pyridazin-4-yl-4′-(trifluoromethyl)biphenyl-4-yl]oxy}benzenesulfonamide] belongs 31 nM; to `O=S(=O)(Nc1nncs1)c1cc(Cl)c(Oc2ccc(-c3ccccc3C(F)(F)F)cc2-c2ccnnc2)cc1F` [Example 4, 5-Chloro-2-fluoro-4-{[3-pyridazin-4-yl-2′-(trifluoromethyl)biphenyl-4-yl]oxy}-N-1,3,4-thiadiazol-2-ylbenzenesulfonamide], 2.9 nM; to `O=S(=O)(Nc1nncs1)c1cc(Cl)c(Oc2ccc(-c3cccc(C(F)(F)F)c3)cc2-c2ccnnc2)cc1F` [Example 5], 1.3 nM.
To `O=S(=O)(Nc1nncs1)c1cc(Cl)c(Oc2ccc(-c3ccc(C(F)(F)F)cc3)cc2-c2ccnnc2)cc1F` [Example 6, 5-Chloro-2-fluoro-4-{[3-pyridazin-4-yl-4′-(trifluoromethyl)biphenyl-4-yl]oxy}-N-1,3,4-thiadiazol-2-ylbenzenesulfonamide] belongs 2.9 nM.
To `N#Cc1cc(S(=O)(=O)Nc2ncns2)ccc1Oc1ccc(-c2ccc(C(F)(F)F)cc2)cc1-c1ccnnc1` [Example 7, 3-Cyano-4-{[3-pyridazin-4-yl-4′-(trifluoromethyl)biphenyl-4-yl]oxy}-N-1,2,4-thiadiazol-5-ylbenzenesulfonamide] belongs 1.2 nM; to `Cn1nccc1-c1cc(-c2ccccc2)ccc1Oc1ccc(S(=O)(=O)Nc2nccs2)cc1F` [Example 8, 3-Fluoro-4-{[3-(1-methyl-1H-pyrazol-5-yl)biphenyl-4-yl]oxy}-N-1,3-thiazol-2-ylbenzenesulfonamide], 32 nM; to `O=S(=O)(Nc1nncs1)c1ccc(Oc2ccc(-c3ccccc3)cc2-c2ccnnc2)c(Cl)c1` [Example 9, 3-Chloro-4-[(3-pyridazin-4-ylbiphenyl-4-yl)oxy]-N-1,3,4-thiadiazol-2-ylbenzenesulfonamide], 11.6 nM.
With `N#Cc1cc(S(=O)(=O)Nc2nncs2)ccc1Oc1ccc(-c2ccccc2)cc1-c1ccnnc1` [Example 10, 3-Cyano-4-[(3-Pyridazin-4-ylbiphenyl-4-yl)oxy]-N-1,3,4-thiadiazol-2-ylbenzenesulfonamide], the IC50 was 53 nM.
In the case of `O=S(=O)(Nc1nncs1)c1cc(Cl)c(Oc2ccc(-c3ccccc3)cc2-c2ccnnc2)cc1F` [Example 11, 5-Chloro-2-fluoro-4-[(3-pyridazin-4-ylbiphenyl-4-yl)oxy]-N-1,3,4-thiadiazol-2-ylbenzenesulfonamide] it was 7.7 nM.
To `N#Cc1cc(S(=O)(=O)Nc2ncns2)ccc1Oc1ccc(-c2ccccc2)cc1-c1ccnnc1` [Example 12, 3-Cyano-4-[(3-pyridazin-4-ylbiphenyl-4-yl)oxy]-N-1,2,4-thiadiazol-5-ylbenzenesulfonamide] belongs 1.9 nM.
In the case of `CN1CC(n2nccc2-c2cc(-c3ccccc3C(F)(F)F)ccc2Oc2cc(F)c(S(=O)(=O)Nc3nncs3)cc2Cl)C1` [Example 13, 5-Chloro-2-fluoro-4-({3-[1-(1-methylazetidin-3-yl)-1H-pyrazol-5-yl]-2′-(trifluoromethyl)biphenyl-4-yl}oxy)-N-1,3,4-thiadiazol-2-ylbenzenesulfonamide] it was 2.2 nM; in that of `CN1CC(n2nccc2-c2cc(-c3ccc(C(F)(F)F)cc3)ccc2Oc2cc(F)c(S(=O)(=O)Nc3nncs3)cc2Cl)C1` [Example 14, 5-Chloro-2-fluoro-4-({3-[1-(1-methylazetidin-3-yl)-1H-pyrazol-5-yl]-4′-(trifluoromethyl)biphenyl-4-yl}oxy)-N-1,3,4-thiadiazol-2-ylbenzenesulfonamide], 1.1 nM.
For the molecule `Cn1nccc1-c1cc(-c2ccccc2)ccc1Oc1ccc(S(=O)(=O)Nc2ncc(F)s2)cc1C#N` [Example 15, 3-Cyano-N-(5-fluoro-1,3-thiazol-2-yl)-4-{[3-(1-methyl-1H-pyrazol-5-yl)biphenyl-4-yl]oxy}benzenesulfonamide], the IC50 was 6 nM.
In the case of `Cn1nccc1-c1cc(-c2ccccc2)ccc1Oc1ccc(S(=O)(=O)Nc2ncns2)cc1C#N` [Example 16, 3-Cyano-4-{[3-(1-methyl-1H-pyrazol-5-yl)biphenyl-4-yl]oxy}-N-1,2,4-thiadiazol-5-ylbenzenesulfonamide] it was 1.5 nM; in that of `N#Cc1cc(S(=O)(=O)Nc2ncns2)ccc1Oc1ccc(-c2ccccc2C(F)(F)F)cc1-c1ccnnc1` [Example 17, 3-Cyano-4-{[3-pyridazin-4-yl-2′-(trifluoromethyl)biphenyl-4-yl]oxy}-N-1,2,4-thiadiazol-5-ylbenzenesulfonamide], 2.7 nM; in that of `COc1cccc(-c2ccc(Oc3ccc(S(=O)(=O)Nc4nccs4)cc3C#N)c(-c3ccnn3C)c2)c1` [Example 18, 3-Cyano-4-{[3′-methoxy-3-(1-methyl-1H-pyrazol-5-yl)biphenyl-4-yl]oxy}-N-(1,3-thiazol-2-yl)benzenesulfonamide], 18 nM.
As to `COc1ccccc1-c1ccc(Oc2ccc(S(=O)(=O)Nc3nccs3)cc2C#N)c(-c2ccnn2C)c1` [Example 19, 3-Cyano-4-{[2′-methoxy-3-(1-methyl-1H-pyrazol-5-yl)biphenyl-4-yl]oxy}-N-(1,3-thiazol-2-yl)benzenesulfonamide], the IC50 was 11 nM.
Consider `Cn1nccc1-c1cc(-c2ccccc2)ccc1Oc1ccc(S(=O)(=O)Nc2ccc(F)cn2)cc1C#N` [Example 20, 3-Cyano-N-(5-fluoropyridin-2-yl)-4-{[3-(1-methyl-1H-pyrazol-5-yl)biphenyl-4-yl]oxy}benzenesulfonamide], for which the IC50 was 240 nM.
To `Cn1nccc1-c1cc(-c2cccc(CN)c2)ccc1Oc1ccc(S(=O)(=O)Nc2nccs2)cc1C#N` [Example 21, 4-{[3′-(Aminomethyl)-3-(1-methyl-1H-pyrazol-5-yl)biphenyl-4-yl]oxy}-3-cyano-N-(1,3-thiazol-2-yl)benzenesulfonamide, hydrochloride salt] belongs 100 nM.
Consider `Cn1nccc1-c1cc(-c2ccccc2)ccc1Oc1cc(F)c(S(=O)(=O)Nc2ccc(F)cn2)cc1Cl` [Example 22, 5-Chloro-2-fluoro-N-(5-fluoropyridin-2-yl)-4-{[3-(1-methyl-1H-pyrazol-5-yl)biphenyl-4-yl]oxy}benzenesulfonamide], for which the IC50 is 33 nM.
In the case of `CNCc1ccccc1-c1ccc(Oc2ccc(S(=O)(=O)Nc3nccs3)cc2C#N)c(-c2ccnn2C)c1` [Example 23, 3-Cyano-4-({2′-[(methylamino)methyl]-3-(1-methyl-1H-pyrazol-5-yl)biphenyl-4-yl}oxy)-N-(1,3-thiazol-2-yl)benzenesulfonamide, trifluoroacetate salt], the IC50 is 5.1 nM.
